Values of other authors as cited in patent publication US10028918B2, “Nanoparticle delivery vehicle for S-nitroso-N-acetyl cysteine and uses thereof” (ALBERT EINSTEIN COLLEGE OF MEDICINE, INC., priority 2012, dated 2018).

Test system: rats
Conditions: normal and acute hypertension induced rats

CC(=O)N[C@@H](CSN=O)C(=O)O [NAC-SNO, S-nitroso-N-acetyl cysteine]
Duration of vascular effect: ~9 min
